Assay results reported in US10894777B2, “TG2 inhibitor piperazine compounds and uses thereof” (UNIVERSITY OF OTTAWA, priority 2016, dated 2021).

What was measured:
U87 cells = test: Agarose colony formation assay, U87 cells; type: cell-based, human; details: 10 μM, 2 weeks
Description: Agarose colony formation assay. Agarose colony formation assay was conducted as described (Horman, S. R. et al., J. Biomol. Screen 18(10):1298-308, 2013; Zhang, K. et al., Tumour Biol. 35(3):2537-48, 2014) using 6-well plates and 5,000 cells in each well. 10 μM NC9 or DMSO was added to every layer at the start of the experiments. 2 mL liquid MEM containing 10 μM NC9 or DMSO was used to cover the agarose and it was changed 3 times a week. Colony growth was monitored every day and at the end of 10-15 days, the colonies were fixed with 4% paraformaldehyde, stained with 0.005% crystal violet, washed with PBS twice and 40 random pictures were taken from each treatment group. A person blinded for the treatments measured the area of the colonies using ImageJ program and the volumes were calculated from the area data under the assumption that the colonies are perfect spheres. The volumes were used to compare the effect of NC9 on colony growth.

SCC-13 cells = test: Spheroid formation / survival assay, SCC-13 cells (ECS cells); type: cell-based, human; details: for spheroid formation (cancer stem cell survival): 8 d spheroids, 20 μM, 48 h
Description: Spheroid formation assay. Cells, maintained as monolayer cultures in growth medium consisting of DMEM (Invitrogen, Frederick, Md.) supplemented with 4.5 mg/ml D-glucose, […] L-glutamine, […] sodium pyruvate, and 5% fetal calf serum, were harvested, collected by centrifugation, and resuspended in spheroid medium comprising DMEM/F12 (1:1) (DMT-10-090-CV, Mediatech Inc., Manassas, Va.) supplemented with 2% B27 serum-free supplement (17504-044, Invitrogen, Frederick, Md.), 20 ng/ml EGF (E4269, Sigma, St. Louis, Mo.), 0.4% bovine serum albumin (B4287, Sigma) and 4 μg/ml insulin (19278 Sigma, St. Louis, Mo.). The cells (40,000) were plated in 9.6 cm^2 wells in Costar six well ultra-low attachment cluster dishes (4371, Corning, Tewksbury, Mass.). Spheroid size and number was monitored with time in culture as previously described (Adhikary, G. et al., PLoS One 8:e84324, 2013).
Spheroid formation assay. Spheroid formation assays were exactly as outlined previously (Adhikary, G. et al., PLoS ONE 8:e84324, 2013), except that the spheroids were grown in six well ultra-low attachment Costar cluster dishes (4371, Corning, Tewksbury, Mass.).
Spheroid formation assay. Spheroid formation assays were as reported previously (Adhikary, G. et al., PLoS One 8:e84324, 2013), except that the spheroids were grown in 6-well ultralow attachment Costar cluster dishes (Corning).

endogenous TG2 = molecular target: T1, endogenous TG2 (Homo sapiens, UniProt P21980); test: TG2 GTP-agarose pull-down assay, HaCaT cells; type: cell-based; details: 48 h
T1 construct: endogenous in cells; host or cells: HaCaT
T1 sequence (P21980 1-687): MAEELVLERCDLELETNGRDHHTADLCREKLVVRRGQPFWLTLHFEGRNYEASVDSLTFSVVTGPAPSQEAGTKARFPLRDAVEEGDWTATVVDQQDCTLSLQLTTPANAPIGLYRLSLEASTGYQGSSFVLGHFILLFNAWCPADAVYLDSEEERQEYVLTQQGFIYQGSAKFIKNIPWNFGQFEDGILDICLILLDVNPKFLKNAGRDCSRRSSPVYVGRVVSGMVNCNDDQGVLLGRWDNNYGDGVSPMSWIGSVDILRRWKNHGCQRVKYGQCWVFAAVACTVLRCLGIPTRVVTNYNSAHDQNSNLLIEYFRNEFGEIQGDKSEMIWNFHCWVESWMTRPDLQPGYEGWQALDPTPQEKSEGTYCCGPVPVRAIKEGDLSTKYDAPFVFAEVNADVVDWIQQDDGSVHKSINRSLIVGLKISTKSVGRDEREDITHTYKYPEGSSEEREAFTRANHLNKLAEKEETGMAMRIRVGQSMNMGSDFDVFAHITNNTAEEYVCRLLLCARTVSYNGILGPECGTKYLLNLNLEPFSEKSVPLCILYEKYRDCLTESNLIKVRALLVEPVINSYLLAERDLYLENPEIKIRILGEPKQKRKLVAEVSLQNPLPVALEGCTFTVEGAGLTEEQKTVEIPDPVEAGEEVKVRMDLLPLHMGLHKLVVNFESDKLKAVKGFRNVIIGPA
Description: HaCaT cells were electroporated with mCer-TG2 or mCer-TG2-YAP and then treated with 0 or 5 μM of the indicated inhibitor and fluorescent lifetime was monitored. […] HaCaT cells were preloaded with fluorescein cadaverine, treated with the indicated inhibitor and then challenged with calcium ionophore, washed and assayed for FC incorporation. […] HaCaT were incubated for 48 h with the indicated inhibitor and extracts were prepared and incubated with GTP-agarose beads to measure TG2 binding to GTP agarose. The beads were then washed, boiled in Laemmli buffer and electrophoresed for immunoblot detection of TG2. Cell equivalent quantities of total and bound samples were electrophoresed to facilitate comparison of GTP bound versus total. […] Experiments were performed as described in FIGS. 31 (F) and (G).

Structure (SMILES) | colony growth, U87 (U87 cells) | spheroid number, formation from single cells (SCC-13 cells; 10 or 20 μM single addition, 0-14 days, after day eight) | spheroid formation (cancer stem cell survival) (SCC-13 cells) | spheroid number, pre-formed spheroids (SCC-13 cells; spheroids grown for 8 days, then treated) | TG2 GTP binding (endogenous TG2)
C=CC(=O)NCCCC[C@H](NC(=O)OCc1ccccc1)C(=O)NCCOCCOCCNS(=O)(=O)c1cccc2c(N(C)C)cccc12 [NC9] | significantly reduced the growth | selectively declined | inhibited spheroid formation | reduced spheroid number | reduced TG2 GTP binding
C=CC(=O)NCCCC[C@H](NC(=O)OCc1ccccc1)C(=O)N1CCN(S(=O)(=O)c2cccc3c(N(C)C)cccc23)CC1 [VA4, (S)-benzyl(6-acrylamido-1-(4-((5-(dimethylamino)naphthalen-1-yl)sulfonyl)piperazin-1-yl)-1-oxohexan-2-yl)carbamate] | inhibited colony growth | – | inhibited spheroid formation | – | reduced TG2 GTP binding
C=CC(=O)NCCCC[C@H](NC(=O)OCc1ccccc1)C(=O)N1CCN(C(=O)c2cc3ccc(O)cc3oc2=O)CC1 [VA5, (S)-Benzyl(6-acrylamido-1-(4-(7-hydroxy-2-oxo-2H-chromene-3-carbonyl)piperazin-1-yl)-1-oxohexan-2-yl)carbamate] | promoted it | – | inhibited spheroid formation | – | reduced TG2 GTP binding
